Consider 1 molecule from US20140038953A1, “COMPOSITIONS AND METHODS FOR CARDIOVASCULAR DISEASE” (THE GENERAL HOSPITAL CORPORATION, priority 2011, published 2014).

Each structure is given as a SMILES string.

The experiment deals with HepG2 cells. Put plainly: ApoB-100 secretion in HepG2 cells (ELISA). The experiment is classed as cell-based, human. Conditions: compound 13 100 nM, atorvastatin 1 nM, ALK3-Fc 400 ng/mL. As to the method: Hepatoma G2 (HepG2) cells and human aortic endothelial cells (HAECs) were purchased from the American type culture collection (Manassas, Va.). HepG2 cells were maintained in Eagle's Minimum Essential Medium (EMEM) supplemented with 10% fetal bovine serum, 100 units/ml of penicillin, 0.1 mg/ml of streptomycin and glutamine. HAECs were cultured in endothelial cell basal medium (EBM 2) supplemented with the EBM2 bullet kit (Lonza, Basel, Switzerland). For experiments, cells were seeded into 6 or 12-well plates (BD Falcon, Franklin Lakes, N.J.) at a concentration of 0.5×10^6 cells per 5 mL of media. HAECs were maintained in EBM 2 with 0.1% FBS without additional growth factors for all experiments. HepG2 cells were grown to 70% confluence before they were incubated in EMEM enriched with 0.1% FBS. ApoB-100 measurements were performed in supernatants from HepG2 that had been incubated in EMEM containing 0.5% bovine serum albumin using a commercially available Human ApoB-100 ELISA kit (Mabtech AB, Nacka Strand, Sweden). BMP2 protein measurements were performed in supernatants from HAECs that had been incubated in EBM2 containing 0.1% FBS using a BMP2 ELISA kit (R&D Systems).
On the technique in general: ELISA stands for enzyme-linked immunosorbent assay.

Turning to `CC(C)c1c(C(=O)Nc2ccccc2)c(-c2ccccc2)c(-c2ccc(F)cc2)n1CC[C@@H](O)C[C@@H](O)CC(=O)O` [Atorvastatin, atorvastatin, reference compound], the “basal ApoB-100 secretion (absence of BMP2)” value is given as “reduced basal apolipoprotein B100 (ApoB-100) secretion”. The “BMP2-induced ApoB-100 secretion” value (BMP2 100 ng/mL) is recorded as “did not prevent the induction of ApoB-100 synthesis by BMP2”. Besides, the “basal ApoB-100 secretion (absence of BMP2)” value (listed as atorvastatin) is recorded as “reduced ApoB-100 production in the absence of BMP2”.
